Reference: patent publication US4029811A, “Certain antiinflammatory dihydrobenzofuran and dihydronaphthofuran acetic acid compounds” (SCHIAPPARELLI - Stabilimenti Chimici Farmaceutici Riuniti …, priority 1974, dated 1977)
“Also recorded” adds a separate entry of the source. Counter-ions that a name gives are not always drawn.

What was measured:
[1] = system: rat hind paw edema; assay: Carrageenin-induced edema assay; type: in vivo; settings: po, 3 hours after carrageenin, tested compounds as sodium salts; for inhibition in vivo at 12.5 mg/kg: 12.5 mg/Kg/os; for inhibition in vivo at 25 mg/kg: 25 mg/Kg/os; for inhibition in vivo at 50 mg/kg: 50 mg/Kg/os; for inhibition in vivo at 100 mg/kg: 100 mg/Kg/os; for inhibition in vivo at 200 mg/kg: 200 mg/Kg/os; for inhibition in vivo at 10 mg/kg: 10 mg/Kg/os; for inhibition in vivo at 30 mg/kg: 30 mg/Kg/os; for inhibition in vivo at 90 mg/kg: 90 mg/Kg/os
Experimental: Paw edema was measured by fluid displacement when the paw was immersed in a cup of mercury.

[2] = system: abdominal stretching; assay: Anti-writhing assay (acetic acid); type: in vivo, mouse; settings: 200 mg/Kg p.o., 20 minutes before 3% acetic acid i.p.; counted 20 minutes
Experimental: Male albino Swiss Mice, each weighing 20 to 22 g, were used. The animals were fasted for 18 hours before pharmacological treatment. […] The number of abdominal stretching was counted for 20 minutes following the acetic acid injection.

[3] = system: Wistar rats; assay: Teratogenic studies in Wistar rats; type: in vivo; settings: 30 mg/Kg and 60 mg/Kg orally
Experimental: Tests in the attempt of discovering any teratogenic and fetal-toxicity effects have been carried out in conventional manner on Wistar rats, to which compound (I) has been administered orally at dosages of 30 mg/Kg and 60 mg/Kg.

[4] = system: Wistar rats; assay: Long-term toxicity (60 days oral) in Wistar rats; type: in vivo; settings: 60 mg/kg daily orally
Experimental: Compound (I) has been tested by employing 40 Wistar rats subdivided into 2 groups of 20 animals (10 male and 10 female). One of the groups (reference group) was fed in conventional manner, while 60 mg/kg daily of the compound on test were administered orally to the animals of the other group. The treatment was continued during 60 days: every 15 days the following aspects were checked: body weight, blood pressure (by incruent method), cardiac frequency, hemochromocytometric examination and urine analysis.
At the end of treatment, all animals have been sacrificed and subjected to further examinations (hemochromocytometric, serum-biochemical, enzymatic, electrolytic and autopsic examination).

[5] = system: painful osteoarticular processes; assay: Clinical tests in patients with painful osteoarticular processes; type: in vivo, human
Experimental: 14 patients were treated with a dosage of 100 mg three times daily, during a period of three days; in further seven cases the treatment was 200--300 mg daily during 8-10 days. The remaining four patients received a dosage of 200 mg three times daily during periods of three to five days.

[6] = system: experimental polyarthritis; assay: Experimental polyarthritis assay (modified Freund's adjuvant); type: in vivo, rat; settings: for Activity in experimental polyarthritis assay: 14 days, paw volume, FIG. 1
Experimental: Three groups of 10 Wistar rats were used. […] Pharmacological treatment was carried out for 14 days, while the third group served as control. Paw edema was measured as for the carrageenin-induced edema. Results are reported in FIG. 1 as % increase of paw volume immediately before modified Freund's adjuvant injection.

[7] = case 1, 100 mg three times daily
[8] = case 1, lumbosacral arthrosis, 100 mg three times daily

## CCC1Cc2cc(C(C)C(=O)O)ccc2O1 (stereo not drawn) [(VI), 2(2-Ethyl-2,3-dihydrobenzofuran-5-yl)-propionic acid]
[1]
  inhibition in vivo at 12.5 mg/kg: 19.3%
  inhibition in vivo at 25 mg/kg: 41.6%
  inhibition in vivo at 50 mg/kg: 43.9%
  inhibition in vivo at 100 mg/kg: 59.1%

## O=C(O)Cc1ccc2c3c(ccc2c1)OCCC3 [(IV), 1H-2,3-Dihydronaphtho [2,1-b]pyran-8-yl-acetic acid]
[2]
  % Stretching decrease from the control: 62%
[1]
  inhibition in vivo at 200 mg/kg: 64%

## CCC1Cc2cc(CC(=O)O)ccc2O1 (stereo not drawn) [Compound (I), 2,3-dihydro-2-ethylbenzofuran-5-yl-acetic acid]
[3]
  Pregnancy disturbances and/or toxic effects on fetus: No. pregnancy disturbances and/or toxic effects on fetus have been observed
[4]; 60 days
  Food consumption: The food consumption was regular
  Lethal cases: No lethal cases have been observed
[4]; 60 days, conclusion
  Alterations induced by prolonged administration: does not induce biologically relevant alterations
[4]; at end of 60 days treatment
  Hemochromocytometric, serum-biochemical, enzymatic, electrolytic and autopsic examination: No significant variations have been observed
[4]; checked every 15 days during 60 days, versus reference group
  Body weight increase, blood pressure, cardiac frequency, hemochromocytometric examination and urine analysis: No differences have been noted
[2]
  % Stretching decrease from the control: 81%
[1]
  inhibition in vivo at 10 mg/kg: 28%
  inhibition in vivo at 30 mg/kg: 46%
  inhibition in vivo at 90 mg/kg: 58%
  inhibition in vivo at 200 mg/kg: 68%
[5]; 25 patients, oral
  Side effects: no side effects having been observed
  Tolerability: always well tolerated
[5]; 25 patients, oral, overall
  Antalgic-antiinflammatory effect: significant antalgic-antiinflammatory effect
[5]; [7]
  Side effects: no side effects having been observed
  Tolerability: exceedingly well tolerated
[5]; [8]
  Clinical response, first day: fair symptomatologic relief
  Clinical response, second day: improvement persists on the second day with an increased possibility for movement and gait
  Clinical response, third day: the painful pattern has almost totally regressed
[5]; case 2, 100 mg three times daily, eight days
  Side effects: No side effect
[5]; case 2, polyarthrosis, 100 mg three times daily, eight days
  Clinical response: clear symptomatologic relief; gait is easier on the 4th and 5th day and mobility of the knee joint is improved; also recorded: Clearly positive clinical appreciation
[5]; case 3, 100 mg three times daily, seven days
  Side effects: No side effect
[5]; case 3, cervical arthrosis, 100 mg three times daily, seven days
  Clinical response: The patient reports relief; disappearance of cephalgia, possibility of rotating the cervical column initially blocked by pain; also recorded: almost total regression of algic aggravation
[5]; case 4, 100 then 200 mg three times daily
  Side effects: no side effect
[5]; case 4, bilateral coxo-arthrosis, 100 mg three times daily days 1-2, 200 mg three times daily day 3
  Clinical response: satisfactory response of the painful pattern with a progressive reduction in algic symptomatology; also recorded: Appreciably favourable clinical response
[5]; case 5, 100 mg three times daily, five days
  Side effects: without any side effect
[5]; case 5, spinal arthrosis, 100 mg three times daily, five days
  Clinical response: good antalgic effect; improved freedom of active and passive movements of the spinal column
[5]; five of 25 cases
  Antalgic-antiinflammatory effect judged slight: 20%
[5]; seventeen of 25 cases
  Antalgic-antiinflammatory effect judged good or very good: 68%
[5]; three of 25 cases
  Antalgic-antiinflammatory effect judged none: 12%
[6]; 200 mg/Kg p.o.
  Activity in experimental polyarthritis assay: significant activity
[6]; 200 mg/Kg p.o., at least in the first 9 days of treatment
  Activity versus reference drug (phenylbutazone): superior to the reference drug

## CCC1CCc2cc(C(C)C(=O)O)ccc2O1 (stereo not drawn) [(VII), 2(2-Ethylchroman-6-yl)-propionic acid]
[1]
  inhibition in vivo at 12.5 mg/kg: 28.7%
  inhibition in vivo at 25 mg/kg: 50.2%
  inhibition in vivo at 50 mg/kg: 31.2%
  inhibition in vivo at 100 mg/kg: 45.9%

## O=C(O)Cc1ccc2c3c(ccc2c1)OCC3 [(III), 1,2-Dihydronaphtho [2,1-b] furan-7-acetic acid]
[2]
  % Stretching decrease from the control: 73%
[1]
  inhibition in vivo at 200 mg/kg: 51%
[6]; same conditions as for compound (I)
  Activity relative to compound (I): quite analogous to the activity of compound (I)

## CCCCC1C(=O)N(c2ccccc2)N(c2ccccc2)C1=O [Phenylbutazone, reference compound]
[2]
  % Stretching decrease from the control: 43%
[1]
  inhibition in vivo at 10 mg/kg: 8%
  inhibition in vivo at 30 mg/kg: 17%
  inhibition in vivo at 90 mg/kg: 20%
  inhibition in vivo at 200 mg/kg: 42%
[6]; 200 mg/Kg p.o.
  Activity in experimental polyarthritis assay: significant activity

## CCC1CCc2cc(CC(=O)O)ccc2O1 (stereo not drawn) [(II), 2-ethylchroman-6-yl-acetic acid]
[2]
  % Stretching decrease from the control: 42%
[1]
  inhibition in vivo at 200 mg/kg: 31%

## CC(C)Cc1ccc(C(C)C(=O)O)cc1 (stereo not drawn) [Ibuprofen, 2-(4-isobutyl-phenyl)-propionic acid-sodium salt, reference compound]
[1]
  inhibition in vivo at 12.5 mg/kg: 42.1%
  inhibition in vivo at 25 mg/kg: 38.1%
  inhibition in vivo at 50 mg/kg: 52.1%
  inhibition in vivo at 100 mg/kg: 46.9%
